Test results from patent US20190054054A1, “Methods reducing or preventing oxidation of high density lipoprotein (HDL)” (Amarin Pharmaceuticals Ireland Limited, priority 2017, published 2019).

Experiments:
human sdLDL = test: Copper-induced sdLDL oxidation, TBARS after 2 hr (Example 6); assay type: biochemical; settings: for reduction of TBARS levels compared to vehicle-treated controls: 10 μM CuSO4
Method: An experiment to study the antioxidant effect of EPA in small dense […] performed. […] Vitamin E (α-tocopherol) was purchased from Sigma-Aldrich and prepared in ethanol at 1.0 mM (E=[…] cm^-1 at 294 nm) just prior to experimental use. All test compounds were further diluted in ethanol or aqueous buffer as needed. Venous blood was collected from healthy volunteers into vacutainer tubes containing sodium EDTA. Plasma was separated by centrifugation at 3000 g for 25 min at 4° C. and adjusted to a density of 1.020 g/mL with KBr. Triglyceride-rich lipoproteins (TGRL) and LDL fractions were then isolated by sequential centrifugation at 70,000 rpm at 4° C. in a Beckman LE-80 ultracentrifuge using a Beckman 50.4Ti rotor (Beckman Coulter, Inc., Fullerton, Calif.). The TGRL fraction (with a relative density of <1.020) was aspirated from the top of the centrifugate and discarded, leaving an LDL-enriched […] relative density of 1.020 to 1.063). […] The sdLDL subfraction was retained for additional experimentation. Plasma and lipoprotein fractions were maintained at 4° C. and protected from excessive exposure to light. Prior to oxidation experiments, EDTA was removed from the lipoprotein fraction using PD-10 desalting columns (GE Healthcare, Piscataway N.J.). After equilibration of the column with phosphate buffered saline (PBS), 2.5 mL of the lipoprotein fraction was loaded on the column and the flow-through discarded. The lipoprotein was then eluted with 3 mL of PBS. […] Data are presented as mean+S.D. for (N) separate samples or treatment groups. Differences between groups were analyzed using the two-tailed, Student's t-test (for comparisons between only two groups) or ANOVA followed by Dunnett or Student-Newman-Keuls multiple comparisons post-hoc analysis (for comparisons between three or more groups).

[1] = system: rat renal glomerular endothelial cells; test: NO and ONOO^− release ex vivo from rat glomerular endothelial cells exposed to oxLDL and high glucose (Example 13); assay type: cell-based; settings: oxLDL 11 mg/dL and glucose 300 mg/dL, treatment 1 hr at 10.0 μM
Method: Healthy male Wistar Kyoto (WKY) rats, aged 7-9 weeks and weighing 250±20 g, were obtained from inbred colonies (National Institutes of Health, Bethesda, Md.). Animals were housed in a controlled environment that provided food and water ad libitum prior to the study. […] Animals were sacrificed and tissue samples obtained immediately for experimentation. All procedures were conducted in accordance with standard Institutional Animal Care and Use Committee guidelines and conformed to the Guide for the Care and Use of Laboratory Animals published by the US National Institutes of Health.
EPA and DHA were purchased from Sigma-Aldrich (St. Louis, Mo.) and solubilized in ethanol to 1.0 mM under nitrogen atmosphere. […] The calcium ionophore (Cal), A23187, was purchased from Sigma-Aldrich and prepared in aqueous buffer to 1.0 mM. All test compounds were further diluted in ethanol or aqueous buffer as needed.
Venous blood from healthy normolipidemic volunteers was collected into Na-EDTA (1 mg/mL blood) vacuum tubes after a 12-hour fast. […] The LDL fraction was dialyzed for 96 hours against PBS containing 0.3 mM EDTA and stored at 4° C. until experimental use.
LDL was oxidized according to the methods of Huber et al. 16 Briefly, the purified LDL fraction was dialyzed against Tris/NaCl Buffer (50 mM Tris in 0.15 M NaCl, pH 8.0) to remove EDTA. Additional buffer was added to adjust the protein concentration to 30 mg/mL. LDL oxidation was initiated with 20 μM CuSO4 and monitored spectrophotometrically (234 nm) over a period of 24 hours until complete. The oxLDL was then dialyzed at 4° C. with 4 L Tris buffer, filtered with a 0.22 µm filter, and stored under nitrogen at 4° C.
Immediately after sacrificing the rats, kidneys were removed, cut into […] sections and transferred to a separate organ chamber containing Dulbecco's phosphate buffered saline ([…]) and […] glucose at pH 7.4.
Concurrent measurements of NO and ONOO^− were performed on intact glomerular (cortical zone) endothelial cells using tandem electrochemical nanosensors, as previously described (FIG. 45).
The NO/ONOO^− nanosensor was positioned near the surface of the endothelial cells using a computer-controlled M3301 micromanipulator (x-y-z resolution of 0.2 μm) and microscope (both from World Precision Instruments, Berlin, Germany) fitted with a CD camera. Each analyte was measured from amperograms and standard calibration curves collected under maximum current. […] After establishing a background current, maximal NO and ONOO^− release was induced by injecting Cal into the organ chamber using a nanoinjector (World Precision Instruments, Berlin Germany). Changes in current (proportional to the molar concentrations of NO or ONOO^− released) were monitored continuously immediately following Cal stimulation.
Data are presented as mean+standard deviation (SD) for (N) separate samples or experiments. Differences between groups were analyzed using the unpaired, two-tailed Student's t-test (for comparisons between only two groups) or ANOVA followed by Student-Newman-Keuls multiple comparisons post hoc analysis (for comparisons between three or more groups). Only differences with probability values less than 0.05 were considered significant.

SMILES	reduction of TBARS levels compared to vehicle-treated controls (human sdLDL; 1.0 μM)	reduction of TBARS levels compared to vehicle-treated controls (human sdLDL; 10.0 μM)	NO/ONOO^− Ratio [1]	increase in NO release ([1]; versus vehicle)	increase of the NO/ONOO^− ratio ([1]; versus vehicle)	reduction of ONOO^− release ([1]; versus vehicle)	effect on sdLDL oxidation over the concentration range (human sdLDL; 1.0 μM to 10.0 μM)
CC/C=C\C/C=C\C/C=C\C/C=C\C/C=C\CCCC(=O)O [EPA, cis-5,8,11,14,17-eicosapentaenoic acid]	13%	57%	1.08	205%	more than 4 fold	27%	–
Cc1c(C)c2c(c(C)c1O)CC[C@@](C)(CCC[C@H](C)CCC[C@H](C)CCCC(C)C)O2 [vitamin E, α-tocopherol]	–	26%	–	–	–	–	did not inhibit sdLDL oxidation except at the highest concentration
